Data set [1] relates to Salmonella typhimurium TA 98. Description: Ames Salmonella mutagenicity test, strain TA 98. The data set is classed as cell-based. The conditions noted are these: TA 98, +s9, positive control, concentration not given.
The test system of data set [2] is Salmonella typhimurium TA 100. It is filed as cell-based. The conditions noted are these: TA 100, +s9, positive control, concentration not given. From the text:
This assay helps to identify substances that can produce genetic damage that leads to gene mutations. Mutant strains of Salmonella typhimurium that are used in AMES assay cannot synthesize histidine, and are very susceptible to additional mutations because they lack the normal repair mechanisms found in bacteria. These mutant strains are more permeable than wild-type bacteria to external chemicals, including potential mutagens. In order for these cells to survive on a plate that lacks histidine, they must regain the ability to synthesize histidine by undergoing another mutation that corrects the original mutation that prevented the production of the missing enzyme. This type of mutation is known as a back mutation, or reversion, because this second mutation returns the mutant to the wild-type (prototrophic) phenotype. This reversion can happen spontaneously due to incorrect DNA replication or as the result of a mutagen.
In this assay specific strains of the bacteria Salmonella typhimurium (TA 98, TA 100) were used to detect mutations. […]
Briefly, 0.5 ml of S9 mix (or 0.1 M phosphate buffer, pH 7.4), 0.1 ml of bacterial culture and 0.1 ml of test solution (or solvent) were added to each tube. […] After incubation for approximately 48 h the revertant colonies were counted.

Data set [3] can be described thus: Superoxide anion scavenging activity.
Experimental: Prepared all the solutions in this experiment using phosphate buffer (pH 7.4). Added 1 ml of NBT (156 μM), 1 ml of NADH (468 μM) and 3 ml of test samples to all test tubes. The reaction was started by adding 100 ml of PMS (60 μM) and incubated the mixture at 25° C. for 5 min followed by measurement of absorbance at 560 nm. The percentage of scavenging was calculated using formula: % Scavenging=Ac−As/Ac×100 Where AC was the absorbance of the control (blank) and As was the absorbance in the presence of the composition.
A short description of data set [4]: DPPH radical scavenging assay. How it is done: The free radical scavenging capacity of the test sample was determined using DPPH scavenging assay. DPPH solution was prepared in 95% methanol. Freshly prepared DPPH solution was taken in test tubes and different concentration of test samples were added and incubated for 20 min. The absorbance was read at 517 nm using a spectrophotometer. Blank was prepared containing the same volume of reaction mixture without any tested samples. The percentage of scavenging was calculated using the formula: % Scavenging=Ac−As/Ac×100 Where AC was the absorbance of the control (blank) and AS was the absorbance in the presence of the composition (Braca et al., 2001). Results
On the technique in general: The DPPH test is a chemical assay of radical scavenging.

Another data set concerns calf thymus DNA. Description: Protective effect on DNA scission induced by hydroxyl radical. On the procedure: In this assay hydroxyl radicals are typically generated within a mixture of ascorbic acid, H2O2 and Fe3+-ethylenediaminetetracetic acid (EDTA); those radicals that are not scavenged by other components of the reaction mixture will eventually attack deoxyribose, thus degrading it into a series of fragments.
The experiment was conducted using calf thymus DNA. Briefly, the sample was dissolved in ethanol at 1 mg/mL. 50 μl of different concentration of sample was then separately taken into mini tubes followed by addition of 400 μL of phosphate buffer (0.2 mol/L, pH 7.4). Subsequently, 50 μL DNA sodium, 50 μL H2O2, 50 μL FeCl3 and 50 μL Na2EDTA (1 mmol/L) were added. The reaction was initiated by adding 50 μL ascorbic acid (18 mmol/L) and the total volume of the reaction mixture was adjusted to 800 μL with buffer. After incubation in a water bath at 55° C. for 20 min, the reaction was terminated by adding 250 μL TCA.
The color was then developed by addition of 150 μL of TBA and heating in an oven at 105° C. for 15 min. The mixture was cooled and absorbance was measured at 532 nm against the buffer (as blank). The percent of protection against DNA damage is expressed Protective effect %=(1−A/A0)×100 Where A0 is the absorbance of the mixture without sample, and A is the absorbance of the mixture with sample. Results

“And” between values parts separate entries of the source, which are not always exact repeats. Identical values can stand only once.

Regarding `Nc1ccc2cc3ccccc3cc2c1` [2AF, 2-aminoanthracene], the Revertant colonies/plate in data set [1] stood at 1560 ± 3.53 colonies/plate; in data set [2] it was 2737 ± 4.9 colonies/plate.

For the compound `O=C1O[C@H]([C@@H](O)CO)C(O)=C1O` [Ascorbic acid], the “% inhibition (superoxide scavenging)” value in data set [3] (20 μg/ml) is 84.80%; in data set [3] (40 μg/ml), 85.20%; in data set [3] (60 μg/ml), 88.40%; in data set [3] (80 μg/ml), 89.20%; in data set [3] (100 μg/ml), 89.60%. The “Absorbance @517 nm (superoxide scavenging)” value in data set [3] (20 μg/ml) is listed as 0.038; in data set [3] (40 μg/ml), 0.037; in data set [3] (60 μg/ml), 0.029; in data set [3] (80 μg/ml), 0.027; in data set [3] (100 μg/ml) it was 0.026. For the same compound, the “% inhibition (DPPH scavenging)” value in data set [4] (20 μg/ml) is given as 83.21%; in data set [4] (40 μg/ml), 90.88%; in data set [4] (60 μg/ml) it was 94.53%; in data set [4] (80 μg/ml) it was 94.89%; in data set [4] (100 μg/ml) it was 96.72%; in data set [4] (100 μg/ml, listed as ascorbic acid), 96.71%. Moreover, the “Absorbance @517 nm” value was found to be 0.046 in data set [4] (20 μg/ml); 0.025 in data set [4] (40 μg/ml); 0.015 in data set [4] (60 μg/ml); 0.014 in data set [4] (80 μg/ml); 0.009 in data set [4] (100 μg/ml).

On to `COc1ccc(O)c(C(C)(C)C)c1` [BHA], for which the “% protective effect against DNA damage” value is 15.79 ± 0.89% in the data set with calf thymus DNA (10 μg/ml); 19.25 ± 1.09% in the data set with calf thymus DNA (20 μg/ml); 32.50 ± 2.12% in the data set with calf thymus DNA (40 μg/ml); 39.16 ± 0.33% in the data set on calf thymus DNA (60 μg/ml); 43.04 ± 0.29% in the data set on calf thymus DNA (80 μg/ml); 51.37% and 51.37 ± 4.06% in the data set with calf thymus DNA (100 μg/ml).
